Assay results: PubChem BioAssay AID1963869 (Molecular Pharmacology Branch, DTP, NCI, 2024)

System: KRAS patient-derived spheroids with HUVEC/MSC, viability
Assay: Anticancer human tumor 323965-272-R-J2-PDC patient-derived pancreatic carcinoma cell line growth inhibition [KRAS2]
Conditions: for IC50: curve of first compound; for viability, T/C: stronger effect = lower value
Method in brief: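 Combination screen of spheroid viability in tumor-cell co-cultures with endothelial (HUVEC) and mesenchymal stem cell stroma. Each agent was tested in half-log dilutions, topping at clinical Cmax or at 10 microM without a known Cmax.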
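Note: spheroids exposed to agents for 7 days.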
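Throughout, for viability, T/C: 100% = DMSO vehicle control viability.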

## COc1cc2nccc(Oc3ccc(NC(=O)C4(C(=O)Nc5ccc(F)cc5)CC4)cc3)c2cc1OC + C=CC(=O)N1CCN(c2nc(OCC3CCCN3C)nc3c2CCN(c2cccc4cccc(C)c24)C3)CC1CC#N
Second compound 0.0316 µM
  IC50: > 10 µM
Second compound 0.1 µM
  IC50: > 10 µM
Second compound 0.316 µM
  IC50: > 10 µM
Second compound 1 µM
  IC50: > 10 µM
Second compound 3.16 µM
  IC50: < 0.0316 µM
Second compound 0.0316 µM, first compound 0.0316 µM
  viability, T/C: 69%
Second compound 0.0316 µM, first compound 0.1 µM
  viability, T/C: 71.3%
Second compound 0.0316 µM, first compound 0.316 µM
  viability, T/C: 77.3%
Second compound 0.0316 µM, first compound 1 µM
  viability, T/C: 76.8%
Second compound 0.0316 µM, first compound 3.16 µM
  viability, T/C: 74.6%
Second compound 0.0316 µM, first compound 10 µM
  viability, T/C: 80.3%
Second compound 0.1 µM, first compound 0.0316 µM
  viability, T/C: 55.9%
Second compound 0.1 µM, first compound 0.1 µM
  viability, T/C: 62.1%
Second compound 0.1 µM, first compound 0.316 µM
  viability, T/C: 64.6%
Second compound 0.1 µM, first compound 1 µM
  viability, T/C: 67.3%
Second compound 0.1 µM, first compound 3.16 µM
  viability, T/C: 65.9%
Second compound 0.1 µM, first compound 10 µM
  viability, T/C: 64.3%
Second compound 0.316 µM, first compound 0.0316 µM
  viability, T/C: 58.9%
Second compound 0.316 µM, first compound 0.1 µM
  viability, T/C: 59.6%
Second compound 0.316 µM, first compound 0.316 µM
  viability, T/C: 65.3%
Second compound 0.316 µM, first compound 1 µM
  viability, T/C: 68.8%
Second compound 0.316 µM, first compound 3.16 µM
  viability, T/C: 64.8%
Second compound 0.316 µM, first compound 10 µM
  viability, T/C: 70.1%
Second compound 1 µM, first compound 0.0316 µM
  viability, T/C: 59.3%
Second compound 1 µM, first compound 0.1 µM
  viability, T/C: 63.5%
Second compound 1 µM, first compound 0.316 µM
  viability, T/C: 62.8%
Second compound 1 µM, first compound 1 µM
  viability, T/C: 69.9%
Second compound 1 µM, first compound 3.16 µM
  viability, T/C: 66.5%
Second compound 1 µM, first compound 10 µM
  viability, T/C: 58.5%
Second compound 3.16 µM, first compound 0.0316 µM
  viability, T/C: 21.5%
Second compound 3.16 µM, first compound 0.1 µM
  viability, T/C: 20.1%
Second compound 3.16 µM, first compound 0.316 µM
  viability, T/C: 8.93%
Second compound 3.16 µM, first compound 1 µM
  viability, T/C: 3.74%
Second compound 3.16 µM, first compound 3.16 µM
  viability, T/C: 3.65%
Second compound 3.16 µM, first compound 10 µM
  viability, T/C: 0.28%
